The numbers were not newly measured in US5656669A, “Restorative neuropharmacological agent for motor and speech disturbance” (Sumitomo Pharmaceuticals Co., Ltd., priority 1994, dated 1997), which cites them from elsewhere.

For data set [1] the following is noted: conventional pharmacological features; cited from earlier work.
Data set [2] concerns aromatic L-amino acid decarboxylase. The following applies: by aromatic L-amino acid decarboxylase; conventional pharmacological features; cited from earlier work.

SMILES strings stand for the structures.

For `N[C@H](C(=O)O)[C@H](O)c1ccc(O)c(O)c1` [threo-DOPS], in data set [1], the “passage through the blood-brain barrier” value is on record as “passes through the blood-brain barrier into the brain”. Moreover, in data set [2], the conversion to norepinephrine entry is recorded as “directly converted to 1-norepinephrine”.
